Four molecules from US9023767B2, “γ-Secretase substrates and methods of use” (Memorial Sloan-Kettering Cancer Center, priority 2009, dated 2015) can be followed below.

“And” between values parts separate entries of the source, which are not always exact repeats. Equal entries are not always repeated.

Test [1] relates to A20 mouse lymphoma cells. Nature of the test: Lymphoma cell proliferation assay, [3H]thymidine incorporation. Format: cell-based. As to conditions: 48 hours. How it is done: For a lymphoma cell proliferation assay, A20 mouse lymphoma cells were seeded in a 96-well plate at a concentration of 5×10^5 cells/ml in 100 μl RPMI media containing 2% fetal bovine serum. An additional 100 μl of media containing DMSO or γ-secretase inhibitor was added and incubated for 48 hours at 37° C. After this incubation, the cells were incubated for 5 hours with 2 μCi/ml [^3H]thymidine at 37° C. Proliferative response was then evaluated by harvesting the tritiated DNA from cells using a Skatron cell harvester and proliferation assessed as a function of [^3H]thymidine incorporation measured on a β-counter.

The target of test [2] is T1, γ-secretase (Homo sapiens (Human), UniProt P49768). Nature of the test: In vitro γ-secretase assay, solubilized γ-secretase, ECL. Format: biochemical. To be noted: Sb4 substrate.
Excerpt: The γ-secretase cleaved Aβ product derived from C100Flag substrate was detected by a pair of antibodies (biotinylated 4G8 and ruthenylated G2-10*) while Sb4 cleaved product was detected by ruthenylated G2-10* alone (FIG. 10a) and quantified using electrochemiluminescence (ECL) technology.
An in vitro assay was based on the one previously reported by Li et al. (2000), except we utilized Sb4 substrate that eliminated the need for biotinylated antibody. […] All assays incorporate ruthenylated G2-10* antibody to detect 40-site cleavage of APP or recombinant Sb4 substrate and quantitated activity by measuring ECL.
Test [3] addresses T1, γ-secretase. Nature of the test: Extended exo-cell γ-secretase assay, HeLa cells. Format: cell-based. As to conditions: 24 hrs pretreatment; read-out: Extended Exo-Cell (nM), IC50. How it is done:
The potency of two structurally different GSIs was assayed in four unique γ-secretase activity assays. IC50 values were determined from the dose response curves using a non-linear regression analysis in the Prism software. An in vitro assay was based on the one previously reported by Li et al. (2000), except we utilized Sb4 substrate that eliminated the need for biotinylated antibody. The cell-based activity assay used N2A mouse neuroblastoma cells stably over-expressing APP and a biotinylated 4G8 antibody that binds the C-terminus of the amyloid beta peptide. The exo-cell assay incubated HeLa cells simultaneously with GSI, Sb4 substrate as well as 0.25% CHAPSO detergent prior to detecting substrate cleavage. Finally, the extended exo-cell assay first incubated HeLa cells with GSI for 24 hrs. Subsequently, the cells were washed 1× in PBS and then incubated with Sb4 substrate and CHAPSO detergent. The assay was then carried out exactly as described for the original exo-cell method. All assays incorporate ruthenylated G2-10* antibody to detect 40-site cleavage of APP or recombinant Sb4 substrate and quantitated activity by measuring ECL. The latter assays were performed as previously described (Li et al., 2000). In the in vitro assay, recombinant Sb4 substrate was incubated for 2.5 hours at 37° C. in pH 7.0 PIPES buffer in the presence of 0.25% CHAPSO detergent and solubilized γ-secretase at a final concentration of 40 ng/ul. The detection of cleaved substrate was determined using ruthenylated G2-10* antibody. Since the Sb4 substrate is biotinylated additional 6E10 biotinylated antibody used in earlier assays is not required. […]
The exo-cell assay was adapted to monitor real-time γ-secretase activity and inhibition over extended times of pretreatment regimens. […] This modified, extended treatment exo-cell assay is capable of quantifying remaining γ-secretase activity following drug treatment on virtually any cell type. The IC50 values for Compound E and GSI-34 were calculated using the extended exo-cell assay (Table 3 and FIG. 15d). […]

Test [4] concerns the target T2, γ-secretase (Mus musculus (Mouse), UniProt P49769). Nature of the test: Cell-based activity assay, N2A cells stably over-expressing APP. As to conditions: 24 hrs, Aβ40; read-out: Cell-based (nM), IC50. How it is done:
(§1) The potency of two structurally different GSIs was assayed in four unique γ-secretase activity assays. IC50 values were determined from the dose response curves using a non-linear regression analysis in the Prism software. An in vitro assay was based on the one previously reported by Li et al. (2000), except we utilized Sb4 substrate that eliminated the need for biotinylated antibody. The cell-based activity assay used N2A mouse neuroblastoma cells stably over-expressing APP and a biotinylated 4G8 antibody that binds the C-terminus of the amyloid beta peptide. The exo-cell assay incubated HeLa cells simultaneously with GSI, Sb4 substrate as well as 0.25% CHAPSO detergent prior to detecting substrate cleavage. Finally, the extended exo-cell assay first incubated HeLa cells with GSI for 24 hrs. Subsequently, the cells were washed 1× in PBS and then incubated with Sb4 substrate and CHAPSO detergent. The assay was then carried out exactly as described for the original exo-cell method. All assays incorporate ruthenylated G2-10* antibody to detect 40-site cleavage of APP or recombinant Sb4 substrate and quantitated activity by measuring ECL. The latter assays were performed as previously described (Li et al., 2000). In the in vitro assay, recombinant Sb4 substrate was incubated for 2.5 hours at 37° C. in pH 7.0 PIPES buffer in the presence of 0.25% CHAPSO detergent and solubilized γ-secretase at a final concentration of 40 ng/ul. The detection of cleaved substrate was determined using ruthenylated G2-10* antibody. Since the Sb4 substrate is biotinylated additional 6E10 biotinylated antibody used in earlier assays is not required. In the cell-based assay, N2A mouse neuroblastoma cells that stably overexpress amyloid precursor protein were incubated with γ-secretase inhibitors in a final concentration of 1% DMSO for 24 hrs. Following incubation, the supernatant was removed from the cells and assayed for Aβ40, the cleaved APP product, using ruthenylated G2-10* antibody as well as biotinylated 4G8 antibody.

The target in test [5] is T1, γ-secretase. Nature of the test: Exo-cell γ-secretase assay, HeLa cells, Sb4 substrate. Format: cell-based. How it is done: Therefore, HeLa cells were first incubated with Sb4 substrate, as well as CHAPSO detergent as depicted in FIG. 14c. Cells were seeded at their indicated concentration in 96-well plates and allowed to attach overnight. The next day, media was removed and cells were washed once with PBS. Fresh media was then added containing 0.25% CHAPSO detergent, Sb4 substrate to a final concentration of 1 μM, and 1% DMSO or γ-secretase inhibitor. This was incubated for 2.5 hours at 37° C. Media was removed and cell debris was pelleted from this media for 5 min. at 3,500 rpm. Supernatant was then added to ruthenylated G2-10* antibody that recognizes cleaved product, but not uncleaved substrate. This was incubated for an additional 2 hours at room temperature. Finally, magnetic streptavidin beads were added to a final concentration of 80 μg/ml and incubated for 30 min. at room temperature. Assay buffer was added to the samples and γ-secretase-mediated cleavage of substrate was monitored using electrochemiluminescence (ECL) (Li et al., 2000). (FIG. 14c).
as §1

Test [6] concerns the target T2, γ-secretase. Nature of the test: Cellular γ-secretase activity, secreted Aβ40 from N2A APP stable cells. Type of test: cell-based. To be noted: 48 hrs. How it is done: FIG. 5. […] The conditioned media were collected and secreted Aβ40 was measured with 6E10/G2-10 antibodies (mean±SEM; n=3). The activities of the peptide treatments were normalized to the DMSO treatment. […] The same experiments were performed as FIG. 5c. The cell lysates were analyzed by CT-15 antibody. Upper panel: full length APP. Lower panel: CTFs. […] The ΔE-Notch1 (a Notch construct with deletion of the extracellular portion and tagged by Myc) was transfected into HEK293 cells.
After transfection or compound treatment, conditioned cell media were collected and diluted in RIPA buffer. Secreted Aβ peptides were detected by ECL assay using biotinylated 6E10 and ruthenylated G2-10 antibodies.

Test [7] deals with T3, γ-secretase (Homo sapiens (Human), UniProt P49768+Q92542). Nature of the test: In vitro γ-secretase cleavage of Notch1 peptide substrate, HeLa membrane, Val1744 antibody. Format: biochemical. Here is the method: FIG. 4. […] Various concentrations of inhibitor were incubated with APP substrate (S4) or Notch peptide substrate containing the C-terminal biotinylated transmembrane domain of Notch1 and HeLa cell membrane in the presence of 0.25% CHAPSO. Aβ40 was detected by G2-10 antibody. […] Activities are expressed as percentage relative to reading that was produced in DMSO control. […] Various concentrations of S4 substrate were incubated with HeLa membrane in fixed concentrations of inhibitor as indicated. The double reciprocal velocity (1/v) and substrate concentrations (1/S) are plotted to determine the type of inhibition. […] Assays were conducted as described in FIG. 4A. […] The labeled samples were solubilized with RIPA buffer. Biotinylated proteins were captured with streptavidin-agarose and probed by immunoblotting using antibodies against biotin, PS1-CTF, PS1-NTF, Nicastrin, PEN-2 and APH-1a. HeLa cell membrane proteins were directly loaded onto lanes indicated by an arrow in the PEN-2 and APH-1a blots as positive controls. […] Upper panel: PS1-NTF; Lower panel: PS1-CTF. […] Rev.

Test [8] concerns the target T3, γ-secretase. Nature of the test: In vitro γ-secretase assay, HeLa membrane, APP-derived substrates, ECL detection. Type of test: biochemical. Here is the method:
The recombinant proteins were incubated with γ-secretase (40 μg/ml) in the presence or absence of 1 μM γ-secretase inhibitor L-685,458 (CAS [292632-98-5], shown below). The reaction mixture contains 0.25% 3[(3-cholamidopropyl) dimethylammonio]-2-hydroxypropanesulfonic acid (CHAPSO), 0.1 μg/μl BSA, protease inhibitor, 50 mM PIPES, pH 7.0, 5 mM MgCl2, 5 mM CaCl2 and 150 mM KCl. The reaction was incubated for 2.5 hr at 37° C. and stopped by adding RIPA buffer (150 mM NaCl, 1.0% NP-40, 0.5% sodium
[drawing 1] deoxycholate, 0.1% SDS, 50 mM Tris HCl, pH 8.0). The products were detected with various antibody combinations as previously described (Lai et al., 2003; J. Biol. Chem., 278: 22475-22481; Li et al., 2000, Proc. Natl. Acad. Sci. USA, 97: 6138-6143; Yin et al., 2007, J. Biol. Chem., 282:23639-23644) using electrochemiluminescence (ECL). The amount of product was determined using synthetic peptide or recombinant standards. The Km and Vmax were determined from the Michaelis-Menten equation Michaelis-Menten Kinetics (ν=Vm[S]/([…]; ν: initial rate; Vm: maximum velocity; Km: the Michaelis-Menten constant, S: substrate). P-values were calculated from Student t-test. 7.1.5 Cell-Based Aβ Production Assay and Western Blot

Test [9] deals with T2, γ-secretase. Nature of the test: In vitro γ-secretase activity from mouse brain membrane. Format: biochemical. Here is the method: (§2) FIG. 3. Effect of the inhibitory domain on in vitro γ-secretase activity. […] The γ-secretase cleavage site is indicated by an arrow between orange and blue shades. The Aβ17-23 region is marked by dotted square. (B) The kinetic analyses of γ-secretase reactivity with βCTF and βCTFΔ substrates. […] The product Aβ40 was assayed with biotinylated 6E10 and ruthenylated G2-10 antibodies by ECL. […] Note: […] The product Aβ38 was assayed with biotinylated 6E10 and ruthenylated Aβ38 antibodies (purchased from Dr. […]) (data represent the mean of duplicates with variance<10%). (E) The effect of an inhibitory domain on γ-secretase activity for ACID production. HEK293 cell membrane was prepared from cells that have been transfected with β[…] et al., 1999) and βCTFΔ(SPA4CTΔ) constructs for 48 hours. Cell membranes (2 mg/ml) were incubated in the absence and presence of 2 μM L-685,458 and then analyzed by Western blotting with CT-15 antibody (Chen et al., 2002). It was next determined whether γ-secretase from other sources has the same preference for the βCTFΔ substrate. […] Product formation was monitored by G2-10 and G2-11 antibodies, respectively. […] In addition, the γ-secretase activity was assayed for Aβ38 production and ε-cleavage (FIGS. 3D and 3E). The Aβ38-site cleavage was detected with a combination of biotinylated 6E10 and ruthenylated anti-Aβ38 antibodies. […]

Test [10] concerns the target T1, γ-secretase. Nature of the test: AICD production (ε-cleavage), membranes of transfected HEK293 cells, Western blot. Format: biochemical. Here is the method: as §2

In the case of `O=C(COc1ccc(F)cc1)Nc1ccc2c(c1)CC1CCC(C2)C1NS(=O)(=O)c1ccc(Cl)s1` (centres unmarked) [GSI-34], the “reduction of cellular proliferation” value in test [1] (300 nM) is 30%. In test [1], the “inhibition of cellular proliferation” value is recorded as “able to inhibit cellular proliferation”. Further, the concentration for half-maximal inhibition (IC50) in [2] was 1 nM; in test [3] it was 38.7 nM and 39 nM; in test [4], 32.4 nM; in [5] (ECL detection, read-out: Exo-Cell (nM), IC50) it was 5.9 nM; in test [5] (HTRF detection, read-out: IC50, exo-cell assay) it was 5.4 nM.

In the case of `COC(=O)CC[C@@H](NC(=O)[C@H](N)CC(=O)OC)C(=O)N[C@H](C)C(=O)N[C@H](Cc1ccccc1)C(=O)N[C@H](Cc1ccccc1)C(=O)N[C@@H](C(=O)N[C@H](CC(C)C)C(N)=O)C(C)C` [RI-PM-1], the inhibition at 100 µM in test [6] (100 μM, read-out: inhibition of the production of Aβ) stood at 70%. The “effect on secreted Aβ species” value in test [6] (100, 60 and 30 μM) was “reduces secreted Aβ species in a dose dependent manner”.

As for “VKSEPVEPPL [S2-site derived Notch peptide, N-terminal residues of NEXT]”, the “inhibition of γ-secretase activity, Notch processing” value in test [7] is on record as “did not inhibit”. In test [8], the “inhibition of γ-secretase activity, APP processing” value is “did not inhibit”.

B1: βCTFΔ: βCTF in which the Aβ17-23 inhibitory domain is deleted (protein, listed as Homo sapiens)
chain: GSHMDAEFRHDSGYEVHHQKVGSNKGAIIGLMVGGVVIATVIVITLVMLKKKQYTSIHHGVVEVDAAVTPEERHLSKMQQNGYENPTYKFFEQMQNDYKDDDDK
As for B1, the “reaction rate of hydrolysis compared to βCTF, 40-site” value in test [9] (G2-10) was found to be 25 times. Also, in [9] (G2-11), the “reaction rate of hydrolysis compared to βCTF, 42-site” value is 11 times. For the same molecule, the “effect of domain deletion on ε-cleavage (AICD)” value in test [10] is “no effect”.
